Reference: ChEMBL document CHEMBL4476888, “Tosylacetate based compounds and derivatives thereof as phgdh inhibitors” (2018)

molecular target: T1, D-3-phosphoglycerate dehydrogenase (Homo sapiens, UniProt O43175); assay: Inhibition of N-terminal HIS-tagged and TEV cleavage site containing full length PHGDH (unknown origin) expressed in Escherichia coli assessed as reduction in conversion of 3-Phosphoglycerate and NAD to 3-Phosphohydroxypyruvate and NADH using 250 uM NAD and 500 uM 3-PG incubated for 240 mins by fluorescence based assay
T1 sequence (O43175 whole entry): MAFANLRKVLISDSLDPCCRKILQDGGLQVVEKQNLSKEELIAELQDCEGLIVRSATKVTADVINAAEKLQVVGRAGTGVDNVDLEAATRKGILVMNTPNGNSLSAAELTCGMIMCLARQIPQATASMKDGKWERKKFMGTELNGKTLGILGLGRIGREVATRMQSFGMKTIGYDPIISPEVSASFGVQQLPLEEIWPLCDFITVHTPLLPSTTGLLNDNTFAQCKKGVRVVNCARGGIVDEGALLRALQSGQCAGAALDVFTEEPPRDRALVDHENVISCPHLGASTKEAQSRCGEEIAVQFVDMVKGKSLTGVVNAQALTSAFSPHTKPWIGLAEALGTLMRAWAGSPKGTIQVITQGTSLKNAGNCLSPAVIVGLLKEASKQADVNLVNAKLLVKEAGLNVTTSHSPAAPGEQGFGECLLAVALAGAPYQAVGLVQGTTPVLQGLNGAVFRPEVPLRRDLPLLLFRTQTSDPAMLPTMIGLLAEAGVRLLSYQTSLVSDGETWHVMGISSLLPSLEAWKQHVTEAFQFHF

Question: How did the IC50 turn out when COCCOC(=O)CS(=O)(=O)c1ccc([C@@H](CO)NC(=O)c2cc3c(Cl)cc(C)cc3n2C)cc1 was run?
Answer: The IC50 was 62 nM.

Question: Which IC50 does the source give for COC(=O)CS(=O)(=O)c1ccc([C@@H](C)NC(=O)c2cc3c(Cl)cc(C)cc3n2C)nc1 here?
Answer: Its IC50 is 1130 nM.

Question: Which IC50 does the source give for Cc1cc(Cl)c2cc(C(=O)N[C@H](C)c3ccc(S(=O)(=O)C(C)(C)C(=O)OC(C)(C)C)cc3)n(C)c2c1 here?
Answer: The IC50 was 5050 nM.

Question: With Cc1cc(Cl)c2cc(C(=O)N[C@H](CO)c3ccc(S(=O)(=O)CC(=O)OCC4(F)COC4)cc3)n(C)c2c1 as the compound, how does the IC50 read?
Answer: The IC50 was 27 nM.

Question: How did the IC50 turn out when Cc1cc2c(cc(C(=O)N[C@@H](C)c3ccc(S(=O)(=O)CC(=O)O)cc3)n2C)c(Cl)c1Cl was run?
Answer: Its IC50 is 155 nM.

Question: With Cc1cc(Cl)c2cc(C(=O)N[C@H](C)c3ccc(S(=O)(=O)CC(=O)OCCNC(=O)OC(C)(C)C)cc3)n(C)c2c1 as the compound, how does the IC50 read?
Answer: The IC50 was 701 nM.
